Measured values as given in PMC9021288 (Nature Communications, 2022).
Several values for one entry are separate records, joined by “and”; a condition that tells them apart may be missing. Equal entries are not always repeated. Where two headings read alike, the source gives them in different places.

Experiments:
[1] = system: P. falciparum T648M / T627A AcAS mutant gametocytes; assay type: cell-based, Plasmodium falciparum
Protocol: Gametocyte viability assays on NF54-HGL parasites were performed using an adapted high-throughput protocol as previously described[15],[64]. In short, asexual blood-stage parasite cultures were set up at 1% parasitemia in a semi-automated shaker system at 5% hematocrit. From day four until day eight or nine, parasites were treated with 50 mM N-acetyl glucosamine to eliminate all asexual blood-stage parasites. Subsequently, gametocytes were isolated by a Percoll density gradient centrifugation. At day 11, gametocytes were seeded (5,000 per well) in 30 µl in white 384-well plates containing 30 µl of compounds diluted in medium (0.1% DMSO). After a 72-h incubation, 30 µl of ONE-Glo reagent (Promega) was added according to manufacturer’s protocol and luminescence was quantified using the BioTek Synergy 2 Plate reader. Values were normalized to DMSO- and epoxomicin or dihydroartemisinin-treated controls.

[2] = system: P. falciparum NF54-HGL, dT648M, cT648M, cT627A asexual blood stages; experiment: Asexual drug-sensitivity of AcAS mutant parasites; assay type: cell-based, Plasmodium falciparum; design: key to asexual blood stages growth, dose-response: % growth; DMSO control = 100%, DHA/epoxomicin = no growth
Protocol: (§1) Replication assays were performed using a SYBR Green method as described previously. Briefly, asynchronous parasites were diluted to 0.83% parasitemia, 3% hematocrit in 30 µl medium, and added to 30 µl of diluted compounds in medium (0.1% DMSO final concentration) in black 384-wells plates. After a 72-h incubation, 30 µl of SYBR Green diluted in lysis buffer was added according to the manufacturer’s protocol (Life Technologies). Fluorescence intensity was measured on a BioTek Synergy 2 Plate Reader after 1-h incubation and was normalized to a DMSO control (100% growth) and DHA- or epoxomicin-treatment (no growth). […] Parasite survival was assessed by flow cytometry on an Accuri C6 (BD Biosciences) with BD C6 Plus software using SYBR Green and MitoTracker Deep Red FM (Life Technologies) as nuclear stain and vital dye, respectively, and data were analyzed using FlowJo (10.5.0). […] Luminescence was measured after 72 h using the Renilla-Glo(R) Luciferase Assay System (Promega E2750) and the GlomAX® Discover Multimode Microplate Reader (Promega). The luminescence values were normalized to DMSO vehicle (100% growth) and 200 nM chloroquine-treated (no growth) samples as controls.
The mutation found in selected drug-resistant parasites was verified by introducing the point mutations in AcAS (T648M and T627A) in NF54-HGL parasites using a CRISPR-Cas9 system as described previously. The oligonucleotides for the guide RNA and the donor template were cloned into a pDC2-based plasmid containing a Cas9 and guide cassette, using the BbsI and EcoRI/AatII restriction sites, respectively. Donor DNA was amplified by (overlap-extension) PCR amplification from genomic P. falciparum DNA and oligonucleotides for the guide RNAs were ordered (Sigma-Aldrich). The correct sequence and integration of both inserts were confirmed by Sanger Sequencing.

[3] = system: P. falciparum NF54 asexual blood-stage parasites; experiment: 72-h asexual blood-stage replication assay (SYBR Green); assay type: cell-based, Plasmodium falciparum; design: key to asexual blood stages growth, dose-response: % growth; DMSO control = 100%, DHA/epoxomicin-treated = no growth
Protocol: as §1
Dose-response assays were analyzed by a nonlinear regression using a four-parameter model and the least squares method to find the best fit. One-way Analysis of variance (ANOVA) was performed using the Bonferroni’s Multiple Comparison Test. For the majority of experiments, 2-4 biological replicates were performed. Typically, 2 replicates were performed for screening activities, and a minimum of 3 replicates are performed for other experiments unless stated otherwise.

Crystal screening (XRPD) = assay type: physicochemical; settings: 36 conditions
Protocol: Crystal screening for each further characterized pantothenamide was performed by a commercial service (Crystal Pharmatech Co., Ltd.) under 36 conditions using a variety of crystallization methods, including liquid vapor diffusion, slow evaporation, slurry conversion and salt/co-crystal formation and solvents. X-ray power diffraction (XRPD) patterns were collected by Bruker X-ray powder diffractometers.

[4] = system: cryopreserved human primary hepatocytes; experiment: in vitro; settings: human, hepatocytes
From the text: Briefly, cryopreserved human primary hepatocytes were thawed and cultured as described above.

[5] = cT627A, Log concentration (M) -7.5
[6] = cT627A, Log concentration (M) -8
[7] = cT627A, Log concentration (M) -8.5
[8] = cT627A, Log concentration (M) -9
[9] = cT627A, Log concentration (M) -9.5
[10] = cT627A, Log concentration (M) -10
[11] = cT648M, Log concentration (M) -6
[12] = cT648M, Log concentration (M) -6.5
[13] = cT648M, Log concentration (M) -7
[14] = cT648M, Log concentration (M) -7.5
[15] = cT648M, Log concentration (M) -8
[16] = cT648M, Log concentration (M) -8.5
[17] = cT648M, Log concentration (M) -9
[18] = cT648M, Log concentration (M) -9.5
[19] = cT648M, Log concentration (M) -10
[20] = dT648M, Log concentration (M) -6
[21] = dT648M, Log concentration (M) -6.5
[22] = dT648M, Log concentration (M) -7
[23] = dT648M, Log concentration (M) -7.5
[24] = dT648M, Log concentration (M) -8
[25] = dT648M, Log concentration (M) -8.5
[26] = dT648M, Log concentration (M) -9
[27] = dT648M, Log concentration (M) -9.5
[28] = dT648M, Log concentration (M) -10
[29] = asexual blood stages NF54 parasites, read-out: IC50
[30] = per replicate experiment, read-out: IC50, asexual blood stages

Compound: CC(CNC(=O)C(O)C(C)(C)CO)NC(=O)CCc1ccccc1F (stereo in doubt) [MMV689258]
- gametocyte viability, dose-response ([1]; cT627A, Log concentration (M) -6): 54.65 and 65.95 and 38.25
- gametocyte viability, dose-response ([1]; cT627A, Log concentration (M) -6.5): 66.35 and 84.15 and 69.3
- gametocyte viability, dose-response ([1]; cT627A, Log concentration (M) -7): 85 and 95.75 and 66.7
- gametocyte viability, dose-response [1, 5]: 95.85 and 91.8 and 94.3
- gametocyte viability, dose-response [1, 6]: 92.9 and 96.45 and 100.2
- gametocyte viability, dose-response [1, 7]: 84.65 and 95.2 and 101.25
- gametocyte viability, dose-response [1, 8]: 97.55 and 97.85 and 111.3
- gametocyte viability, dose-response [1, 9]: 87.2 and 101.95 and 102.75
- gametocyte viability, dose-response [1, 10]: 85.8 and 97.9 and 99.85
- gametocyte viability, dose-response [1, 11]: 103.9 and 89.5 and 90.75
- gametocyte viability, dose-response [1, 12]: 103.05 and 97.85 and 100.35
- gametocyte viability, dose-response [1, 13]: 99.3 and 92.85 and 107.7
- gametocyte viability, dose-response [1, 14]: 98.25 and 95.25 and 103.7
- gametocyte viability, dose-response [1, 15]: 84.9 and 96.6 and 106.6
- gametocyte viability, dose-response [1, 16]: 104.05 and 98.15 and 101
- gametocyte viability, dose-response [1, 17]: 97.2 and 88.65 and 97.7
- gametocyte viability, dose-response [1, 18]: 106.45 and 88.2 and 104.1
- gametocyte viability, dose-response [1, 19]: 102.75 and 101.9 and 108.55
- gametocyte viability, dose-response [1, 20]: 104.25
- gametocyte viability, dose-response [1, 21]: 95.5
- gametocyte viability, dose-response [1, 22]: 100.05
- gametocyte viability, dose-response [1, 23]: 101.95
- gametocyte viability, dose-response [1, 24]: 95.3
- gametocyte viability, dose-response [1, 25]: 102.85
- gametocyte viability, dose-response [1, 26]: 93.8
- gametocyte viability, dose-response [1, 27]: 107.4
- gametocyte viability, dose-response [1, 28]: 95.7
- asexual blood stages growth, dose-response ([2]; NF54-HGL, Log concentration (M) -9): 76.1 and 93.6 and 100.55
- asexual blood stages growth, dose-response ([2]; NF54-HGL, Log concentration (M) -9.5): 86.25 and 83.5 and 106.05
- asexual blood stages growth, dose-response ([2]; NF54-HGL, Log concentration (M) -10): 96.25 and 97.9 and 112.35
- asexual blood stages growth, dose-response [2, 5]: 91.7 and 68.35 and 87.5
- asexual blood stages growth, dose-response [2, 6]: 98.75 and 75.4 and 102
- asexual blood stages growth, dose-response [2, 7]: 98.95 and 109.7 and 103.8
- asexual blood stages growth, dose-response [2, 8]: 93.85 and 110.4 and 101.9
- asexual blood stages growth, dose-response [2, 9]: 95.15 and 100.65 and 102.3
- asexual blood stages growth, dose-response [2, 10]: 92.1 and 102.75
- asexual blood stages growth, dose-response [2, 11]: 85.3 and 76.95 and 95.6
- asexual blood stages growth, dose-response [2, 12]: 97.25 and 93 and 109.55
- asexual blood stages growth, dose-response [2, 13]: 112 and 98.45 and 99.1
- asexual blood stages growth, dose-response [2, 14]: 108.7 and 101 and 101.4
- asexual blood stages growth, dose-response [2, 15]: 108.05 and 99.35 and 97.85
- asexual blood stages growth, dose-response [2, 16]: 99.1 and 110.25 and 104.05
- asexual blood stages growth, dose-response [2, 17]: 88.2 and 96.6 and 106.85
- asexual blood stages growth, dose-response [2, 18]: 95.65 and 97.35 and 100.3
- asexual blood stages growth, dose-response [2, 19]: 86.35 and 97.9 and 99.6
- asexual blood stages growth, dose-response [2, 20]: 86.55
- asexual blood stages growth, dose-response [2, 21]: 89.25
- asexual blood stages growth, dose-response [2, 22]: 95.15
- asexual blood stages growth, dose-response [2, 23]: 99.65
- asexual blood stages growth, dose-response [2, 24]: 89.85
- asexual blood stages growth, dose-response [2, 25]: 92.65
- asexual blood stages growth, dose-response [2, 26]: 97.45
- asexual blood stages growth, dose-response [2, 27]: 97
- asexual blood stages growth, dose-response [2, 28]: 99.15
- IC50 [3, 29]: 7 nM
- Crystalline (Crystal screening (XRPD)): Yes
- Human hepatocyte CLint [4]: 0.8 µl/min/10^6 cells

Compound: C[C@@H](CNC(=O)[C@H](O)C(C)(C)CO)NC(=O)c1cccc(C#N)c1 (stereo in doubt) [MMV884962]
- asexual blood stages growth, dose-response ([3]; Log concentration (M) -7): 1.15 and 1.45
- asexual blood stages growth, dose-response ([3]; Log concentration (M) -7.5): 11.25 and 6.6
- asexual blood stages growth, dose-response ([3]; Log concentration (M) -8): 55.2 and 32.3
- asexual blood stages growth, dose-response ([3]; Log concentration (M) -8.5): 80.1 and 73.8
- asexual blood stages growth, dose-response ([3]; Log concentration (M) -9): 84.85 and 73.05
- asexual blood stages growth, dose-response ([3]; Log concentration (M) -9.5): 95.6 and 92.6
- asexual blood stages growth, dose-response ([3]; Log concentration (M) -10): 93.15 and 89.75
- IC50 [3, 29]: 7.4 nM
- IC50 [3, 30]: 12.1 nM and 7.41 nM
- Crystalline (Crystal screening (XRPD)): No
- Human hepatocyte CLint [4]: 0.3 µl/min/10^6 cells

Compound: C[C@@H](CNC(=O)[C@H](O)C(C)(C)CO)NC(=O)c1cccc(F)c1 (stereo in doubt) [MMV1542001]
- asexual blood stages growth, dose-response ([3]; Log concentration (M) -8.5): 33 and 19.45
- asexual blood stages growth, dose-response ([3]; Log concentration (M) -9): 66.7 and 78.5
- asexual blood stages growth, dose-response ([3]; Log concentration (M) -9.5): 89.15 and 95.45
- asexual blood stages growth, dose-response ([3]; Log concentration (M) -10): 79.7 and 90.9
- IC50 [3, 29]: 2.4 nM
- IC50 [3, 30]: 2.45 nM and 1.87 nM
- Crystalline (Crystal screening (XRPD)): No
- Human hepatocyte CLint [4]: 0.5 µl/min/10^6 cells

Compound: C[C@@H](CNC(=O)[C@H](O)C(C)(C)CO)NC(=O)c1cc(C#N)ccc1F [MMV693182]
- asexual blood stages growth, dose-response ([3]; Log concentration (M) -7.5): 14.55 and 11.25
- asexual blood stages growth, dose-response ([3]; Log concentration (M) -8): 38 and 38.5
- asexual blood stages growth, dose-response ([3]; Log concentration (M) -8.5): 59.8 and 65.55
- asexual blood stages growth, dose-response ([3]; Log concentration (M) -9): 98.45 and 83.35
- asexual blood stages growth, dose-response ([3]; Log concentration (M) -9.5): 91.35 and 91.95
- asexual blood stages growth, dose-response ([3]; Log concentration (M) -10): 80.55 and 97.8
- IC50 ([3]; Plasmodium falciparum, NF54, 72 h, 72-h asexual growth assay, range of independent experiments, read-out: Asexual blood stage IC50 range (N)): 6.2 to 7.5 nM
- IC50 ([3]; Plasmodium falciparum, NF54, asexual blood stages NF54 parasites): 7.5 nM
- IC50 ([3]; Plasmodium falciparum, NF54, per replicate experiment, read-out: IC50, asexual blood stages): 7.54 nM
- IC50 [3, 30]: 6.21 nM
- Crystalline (Crystal screening (XRPD)): Yes

Compound: CC(C)(CO)[C@@H](O)C(=O)NCCNC(=O)c1cc(C#N)ccc1F [MMV976394]
- asexual blood stages growth, dose-response ([3]; Log concentration (M) -6): 3.4 and 4.05
- asexual blood stages growth, dose-response ([3]; Log concentration (M) -6.5): 2.2 and 3.95
- asexual blood stages growth, dose-response ([3]; Log concentration (M) -8.5): 87.25 and 70.5
- asexual blood stages growth, dose-response ([3]; Log concentration (M) -9): 94.8 and 82.75
- asexual blood stages growth, dose-response ([3]; Log concentration (M) -9.5): 101.5 and 89.75
- asexual blood stages growth, dose-response ([3]; Log concentration (M) -10): 97.1 and 96.9
- IC50 [3, 30]: 25 nM and 6.26 nM
- Crystalline (Crystal screening (XRPD)): No
- Human hepatocyte CLint [4]: 0.2 µl/min/10^6 cells
